Measurements published in publication PMC4551797 (PLoS ONE, 2015).

What was measured:
GPR119 = molecular target: T1, GPR119 (Homo sapiens, UniProt Q8TDV5); test: Selectivity: enteroendocrine GPCR GPR119
T1 sequence (Q8TDV5 1-335): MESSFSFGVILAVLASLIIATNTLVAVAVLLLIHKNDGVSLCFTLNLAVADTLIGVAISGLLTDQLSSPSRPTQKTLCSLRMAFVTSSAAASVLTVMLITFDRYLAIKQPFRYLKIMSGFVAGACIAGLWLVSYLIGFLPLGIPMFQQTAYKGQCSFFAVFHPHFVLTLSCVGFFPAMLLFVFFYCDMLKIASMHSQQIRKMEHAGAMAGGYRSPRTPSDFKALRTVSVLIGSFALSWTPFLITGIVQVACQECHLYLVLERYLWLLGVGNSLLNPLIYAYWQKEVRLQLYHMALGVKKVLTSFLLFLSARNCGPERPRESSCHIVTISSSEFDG

GPR120 = molecular target: T2, GPR120 (Homo sapiens, UniProt Q5NUL3); test: Selectivity: enteroendocrine GPCR GPR120
T2 sequence (Q5NUL3 1-361): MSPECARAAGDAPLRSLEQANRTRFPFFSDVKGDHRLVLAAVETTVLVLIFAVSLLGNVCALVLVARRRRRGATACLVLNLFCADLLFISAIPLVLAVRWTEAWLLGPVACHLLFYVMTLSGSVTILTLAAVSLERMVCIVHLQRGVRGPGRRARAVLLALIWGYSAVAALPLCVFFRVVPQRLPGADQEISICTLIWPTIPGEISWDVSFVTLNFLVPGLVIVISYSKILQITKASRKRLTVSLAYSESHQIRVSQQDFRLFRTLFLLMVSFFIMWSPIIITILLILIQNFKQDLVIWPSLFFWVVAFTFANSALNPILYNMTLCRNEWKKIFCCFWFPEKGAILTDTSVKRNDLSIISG

HEK-293 cells = test: cAMP production in untransfected HEK-293 cells (specificity control); assay type: cell-based; settings: Homo sapiens, HEK293, read-out: cAMP production: no elevation up to
Experimental: HEK-293 cells were obtained from ATCC and a clonal HEK-293 line overexpressing mouse TGR5 was prepared. Both were maintained in Dulbecco’s modified Eagle’s medium (DMEM) containing 10% fetal bovine serum (FBS) and penicillin /streptomycin. Mouse STC-1 cells were obtained from ATCC under agreement with the Cold Spring Harbor Laboratories and maintained in DMEM containing 10% FBS and penicillin /streptomycin. NCI-H716 cells were obtained from ATCC and were maintained in RPMI-1640 with 10% FBS. NCI-H716 cells were cultured in 96 well plate coated with Matrigel (BD). After 72 hours, cAMP production stimulated with TGR5 agonists was measured using HTRF cAMP assay kit (CISBIO). The level of cAMP in suspensions of STC-1 cells stimulated with increasing concentrations of TGR5 agonists was also determined. […] The production of GLP-1 was determined using a GLP-1 Assay (7–36) amide kit (Mesoscale Discovery) following the manufacturer’s instructions. […]
Compound 18 is a novel small molecule agonist of TGR5 developed by Eli Lilly and Company (MW = 508.62, Fig 2A). […] In order to determine potency of compound 18 for the mouse and human TGR5 receptor in cells with endogenous levels of receptor, we measured compound 18-stimulated cAMP production and GLP-1 secretion in both mouse (STC-1) and human (NCI-H716) enteroendocrine cell lines, that we have shown to express TGR5 natively (Fig 1). […]

[1] = CEREP mini panel (56 assays: enzymes, receptors, ion channels); settings: read-out: IC50s for 56 assays in a CEREP mini panel
GPR40 = GPR40 (Homo sapiens, UniProt O14842); test: Selectivity: enteroendocrine GPCR GPR40
wild-type mice = test: Three-day study on GLP-1, PYY and bile weight in wild-type littermates; settings: 100 mg/kg oral BID 3 days, 30 min after last dose
Experimental: C57BL/6 mice, Tgr5 KO mice, or their wild-type littermate controls were orally dosed with vehicle or compounds twice per day for 3 days, with overnight fasting performed on the evening of day 2. On the morning of day 3, animals were dosed orally with compounds and then euthanized by CO2 asphyxiation at 30 minutes after the fifth dose. Plasma was collected for analysis of GLP-1 (X-36) amide as mentioned above, followed immediately by incision into the abdominal cavity to remove and weigh bile from the gallbladder.

FXR = molecular target: T3, FXR (Homo sapiens, UniProt Q96RI1); test: Selectivity: nuclear hormone receptor FXR
T3 sequence (Q96RI1 1-486): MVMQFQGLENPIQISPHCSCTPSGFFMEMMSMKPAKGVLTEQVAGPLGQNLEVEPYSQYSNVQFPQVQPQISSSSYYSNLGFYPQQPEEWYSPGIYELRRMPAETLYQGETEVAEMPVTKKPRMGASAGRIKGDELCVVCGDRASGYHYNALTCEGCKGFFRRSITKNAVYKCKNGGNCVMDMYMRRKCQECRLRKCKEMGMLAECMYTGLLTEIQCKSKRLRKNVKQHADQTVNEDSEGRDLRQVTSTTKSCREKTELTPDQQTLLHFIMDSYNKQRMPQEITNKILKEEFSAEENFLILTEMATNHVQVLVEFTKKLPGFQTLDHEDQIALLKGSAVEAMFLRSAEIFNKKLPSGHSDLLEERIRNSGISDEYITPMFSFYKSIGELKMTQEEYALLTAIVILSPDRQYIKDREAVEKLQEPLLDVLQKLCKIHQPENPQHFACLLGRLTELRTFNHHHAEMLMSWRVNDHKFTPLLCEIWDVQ

C57BL/6 mice = test: Oral glucose tolerance test, glucose only; settings: oral 1-100 mg/kg tested, glucose 3 g/kg 15 min after compound
Experimental: For measurement of glucose only, overnight-fasted C57BL/6 mice in a normal light cycle were orally dosed with vehicle or compound, followed by an oral bolus of 3 g/kg glucose at 15 minutes post compound. At 0, 20, 40, 60, and 120 minutes post glucose dose, blood glucose was assessed via glucometers. Resulting raw data was used to generate AUCs. […] At 0, 15, 30, 60, and 120 minutes post glucose dose, blood glucose was assessed via glucometers. Resulting raw data was used to generate AUCs.

GPR40, sequence (O14842 whole entry, species assumed): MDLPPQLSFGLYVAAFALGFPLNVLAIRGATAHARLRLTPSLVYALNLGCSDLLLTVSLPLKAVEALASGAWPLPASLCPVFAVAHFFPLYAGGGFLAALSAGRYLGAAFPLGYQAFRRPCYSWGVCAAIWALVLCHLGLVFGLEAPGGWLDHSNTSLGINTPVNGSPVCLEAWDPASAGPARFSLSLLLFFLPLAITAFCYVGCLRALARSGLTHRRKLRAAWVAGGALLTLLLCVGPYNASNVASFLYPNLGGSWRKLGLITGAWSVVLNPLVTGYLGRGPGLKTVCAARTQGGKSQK

Question: For CC(=O)N1CCC(C(C)N(C(=O)COc2cccc3sc4nc(C)cn4c23)c2ccc(F)cc2)CC1 (stereo not shown) [compound 18], which EC50 (GPR119) is on record?
Answer: > 125 µM

Question: What about the EC50 (GPR120) of the same compound?
Answer: > 125 µM

Question: What about the EC50 (HEK-293 cells) of the same compound?
Answer: > 30 µM

Question: And the IC50 [1]?
Answer: > 10 µM

Question: And the EC50 (GPR40)?
Answer: > 125 µM

Question: What about the GLP-1 (wild-type mice) of the same compound?
Answer: significant increase

Question: What about the PYY (wild-type mice) of the same compound?
Answer: significant increase

Question: What about the bile weight (wild-type mice) of the same compound?
Answer: significant increase

Question: What about the EC50 (FXR) of the same compound?
Answer: > 125 µM

Question: What about the “doses that reduce glucose excursions in OGTT” value (C57BL/6 mice) of the same compound?
Answer: ≥ 30 mg/kg
